Columns and labels:
Format in all cases: biochemical
PI3K β (p110β/p85α)(h) = PI3K β (p110β/p85α)(h) (Homo sapiens, UniProt P42338); experiment: Assay for phosphatidylinositol 3-kinase beta (PI3Kβ) activity, PI3K-HTRF kit; conditions: TR-FRET; enzyme 0.725 μg/ml, 10 μM PIP2, 10 μM ATP
Protocol: [The source words this procedure for another target and says it was used here with some conditions changed.] (§1) The compounds of the present invention were assayed for the activity of phosphatidylinositol 3-kinase gamma (PI3Kγ) by using a PI3K enzyme-homogenous time resolved fluorescence (PI3K-HTRF) kit, which is available from Upstate (Millipore Co, Billerica, Mass., USA).
(§2) Three kinds of buffer solutions including a phosphorylation reaction solution (a reaction buffer containing 40 mM MgCl2 which is available from Upstate was diluted 4 times and added with 5 mM DTT), a stop solution (STOP A and B solutions which are available from Upstate were mixed at a ratio of 3:1) and a fluorescence detection solution (Detection solutions A, B and C which are available from Upstate were mixed at a ratio of 1:1:18) were prepared. 1 mM of PIP2 substrate (phosphatidylinositol 4,5 biphosphate; Upstate), PI3Kγ (#14-558; Upstate) enzyme and 10 mM ATP (Sigma Aldrich Co., St. Louis, Mo., USA) were prepared. Each of PI3Kγ, 1 mM PIP2 and 10 mM ATP was diluted to 2.9 μg/ml (final reaction concentration: 1.45 μg/ml), 20 μM (final reaction concentration: 10 μM) and 40 μM (final reaction concentration: 10 μM), respectively. The buffer solution used for dilution and preparation process was the phosphorylation reaction solution. The stop solution was used for the termination of phosphorylation reaction, and the fluorescence detection solution was used for the detection of time-resolved fluorescence signals.
(§3) Each test sample was transferred to a 384 well low flange white flat bottom microplate (#3572, Corning Life Sciences, Lowell, Mass., USA) by using a multi 8-channel (Pipetman Neo multi 8×20, Gilson, Middleton, Wis., USA) to make a final phosphorylation reaction volume of 20 μl per each well. For the negative control, 5 μl of 14.4% DMSO and 10 μl of PIP2 substration solution were used, and 5 μl of 14.4% DMSO and 10 μl of PIP2/PI3Kγ mixed solution were used as the positive control. For the test group, 5 μl of a solution prepared by dissolving the compound obtained in Example in DMSO and 10 μl of PIP2/PI3Kγ mixed solution were used. Before the initiation of the phosphorylation reaction, sample compounds were pretreated with the enzyme for approximately 10 minutes, and then the phosphorylation reaction was induced by adding 5 μl of ATP. Since each of the test compound and ATP takes up 25% of the total volume, and PIP2 and PI3Kγ take up 50% of the total volume during the reaction, each solution was concentrated 4 and 2 times, respectively, before mixing the solutions. Subsequently, the test sample was gently shook for 3 minutes and subjected to a phosphorylation reaction for 90 minutes at room temperature, which was then added with 5 μl of the stop solution to terminate the phosphorylation reaction. In order to induce a time-resolved fluorescence reaction, 5 μl of the fluorescence detection solution was added to the sample. The fluorescence detection solution contains biotin-phosphatidylinositol 3,4,5-triphosphate (PIP3), streptavidin-labeled Allopycocyanin (APC) and europium-labeled Pleckstrin homology domain (the PIP3 binds to PH domain), and the time-resolved fluorescence reaction is induced by a series of reaction of PH domain and PIP3, and biotin and streptavidin. The sample was left to stand for 6 hours at room temperature, and the time-resolved fluorescence resonance energy transfer (TR-FRET) rate was measured (emission wavelength: 665 nm, 620 nm, excitation wavelength: 340 nm) by using a Flexstation3 Micro plate reader (Molecular Devices, USA). TR-FRET Rate and TR-Inhibition Rate were calculated based on Equations 1 and 2 below, and the results are expressed in IC50, which is the concentration of a compound that inhibits 50% of PI3Kγ activity in vitro. TR-FRET Rate=(665 nm emission wavelength/620 nm emission wavelength)×10000 <Equation 1> TR-FRET Inhibition Rate=[(TR-FRET Rate of Sample−TR-FRET Rate of Negative Control)/(TR-FRET Rate of Positive Control−TR-FRET Rate of Negative Control)]×100 <Equation 2> […]

PI3Kα (p110α/p85α)(h) = PI3Kα (p110α/p85α)(h) (Homo sapiens, UniProt P42336); experiment: Assay for phosphatidylinositol 3-kinase alpha (PI3Kα) activity, PI3K-HTRF kit; conditions: TR-FRET; enzyme 0.3625 μg/ml, 10 μM PIP2, 10 μM ATP
Protocol: [The source words this procedure for another target and says it was used here with some conditions changed.] as §1, §2
(§4) Each test sample was transferred to a 384 well low flange white flat bottom microplate (#3572, Corning Life Sciences, Lowell, Mass., USA) by using a multi 8-channel (Pipetman Neo multi 8×20, Gilson, Middleton, Wis., USA) to make a final phosphorylation reaction volume of 20 μl per each well. For the negative control, 5 μl of 14.4% DMSO and 10 μl of PIP2 substration solution were used, and 5 μl of 14.4% DMSO and 10 μl of PIP2/PI3Kγ mixed solution were used as the positive control. For the test group, 5 μl of a solution prepared by dissolving the compound obtained in Example in DMSO and 10 μl of PIP2/PI3Kγ mixed solution were used. Before the initiation of the phosphorylation reaction, sample compounds were pretreated with the enzyme for approximately 10 minutes, and then the phosphorylation reaction was induced by adding 5 μl of ATP. Since each of the test compound and ATP takes up 25% of the total volume, and PIP2 and PI3Kγ take up 50% of the total volume during the reaction, each solution was concentrated 4 and 2 times, respectively, before mixing the solutions. Subsequently, the test sample was gently shook for 3 minutes and subjected to a phosphorylation reaction for 90 minutes at room temperature, which was then added with 5 μl of the stop solution to terminate the phosphorylation reaction. In order to induce a time-resolved fluorescence reaction, 5 μl of the fluorescence detection solution was added to the sample. The fluorescence detection solution contains biotin-phosphatidylinositol 3,4,5-triphosphate (PIP3), streptavidin-labeled Allopycocyanin (APC) and europium-labeled Pleckstrin homology domain (the PIP3 binds to PH domain), and the time-resolved fluorescence reaction is induced by a series of reaction of PH domain and PIP3, and biotin and streptavidin. The sample was left to stand for 6 hours at room temperature, and the time-resolved fluorescence resonance energy transfer (TR-FRET) rate was measured (emission wavelength: 665 nm, 620 nm, excitation wavelength: 340 nm) by using a Flexstation3 Micro plate reader (Molecular Devices, USA). TR-FRET Rate and TR-Inhibition Rate were calculated based on Equations 1 and 2 below, and the results are expressed in IC50, which is the concentration of a compound that inhibits 50% of PI3Kγ activity in vitro. TR-FRET Rate=(665 nm emission wavelength/620 nm emission wavelength)×10000 <Equation 1> TR-FRET Inhibition Rate=[(TR-FRET Rate of Sample−TR-FRET Rate of Negative Control)/(TR-FRET Rate of Positive Control−TR-FRET Rate of Negative Control)]×100 <Equation 2>

PI3Kδ (p110δ/p85α)(h) = PI3Kδ (p110δ/p85α)(h) (Homo sapiens, UniProt O00329); experiment: Assay for phosphatidylinositol 3-kinase delta (PI3Kδ) activity, PI3K-HTRF kit; conditions: TR-FRET; enzyme 0.725 μg/ml, 10 μM PIP2, 10 μM ATP
Protocol: [The source words this procedure for another target and says it was used here with some conditions changed.] as §1, §2, §3

PI3Kγ (p120γ)(h) = PI3Kγ (p120γ)(h) (Homo sapiens, UniProt P48736); experiment: Assay for phosphatidylinositol 3-kinase gamma (PI3Kγ) activity, PI3K-HTRF kit; conditions: TR-FRET; enzyme 1.45 μg/ml, 10 μM PIP2, 10 μM ATP
Protocol: as §1, §2, §4

PI3Kδ (p110δ/p85α)(h), sequence (O00329 whole entry): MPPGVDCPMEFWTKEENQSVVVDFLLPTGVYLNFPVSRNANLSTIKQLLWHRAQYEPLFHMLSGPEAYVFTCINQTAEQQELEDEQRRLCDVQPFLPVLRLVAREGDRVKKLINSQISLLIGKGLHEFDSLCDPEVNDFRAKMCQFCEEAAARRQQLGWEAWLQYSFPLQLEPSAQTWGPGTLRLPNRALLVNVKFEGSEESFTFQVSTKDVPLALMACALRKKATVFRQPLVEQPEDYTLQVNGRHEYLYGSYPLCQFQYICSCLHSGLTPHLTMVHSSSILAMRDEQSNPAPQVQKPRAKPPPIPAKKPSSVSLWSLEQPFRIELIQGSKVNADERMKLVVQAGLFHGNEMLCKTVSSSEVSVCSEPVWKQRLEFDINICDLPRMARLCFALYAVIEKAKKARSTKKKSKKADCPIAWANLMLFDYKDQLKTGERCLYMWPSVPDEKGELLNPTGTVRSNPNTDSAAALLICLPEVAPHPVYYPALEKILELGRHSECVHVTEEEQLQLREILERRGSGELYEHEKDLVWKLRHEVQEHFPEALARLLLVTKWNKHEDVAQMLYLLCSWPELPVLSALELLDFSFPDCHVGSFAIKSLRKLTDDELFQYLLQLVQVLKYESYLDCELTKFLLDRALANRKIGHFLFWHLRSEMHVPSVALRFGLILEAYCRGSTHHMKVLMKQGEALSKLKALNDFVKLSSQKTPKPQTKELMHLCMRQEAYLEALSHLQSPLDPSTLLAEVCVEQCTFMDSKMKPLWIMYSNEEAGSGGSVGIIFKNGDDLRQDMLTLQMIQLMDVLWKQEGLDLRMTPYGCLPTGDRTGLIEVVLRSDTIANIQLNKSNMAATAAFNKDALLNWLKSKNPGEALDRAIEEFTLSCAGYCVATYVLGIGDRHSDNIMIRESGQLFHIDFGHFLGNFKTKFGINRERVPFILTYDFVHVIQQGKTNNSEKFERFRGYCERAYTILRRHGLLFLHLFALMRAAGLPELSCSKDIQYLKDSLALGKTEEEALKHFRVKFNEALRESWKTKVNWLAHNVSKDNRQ
PI3Kδ (p110δ/p85α)(h), sequence (P27986 whole entry partner): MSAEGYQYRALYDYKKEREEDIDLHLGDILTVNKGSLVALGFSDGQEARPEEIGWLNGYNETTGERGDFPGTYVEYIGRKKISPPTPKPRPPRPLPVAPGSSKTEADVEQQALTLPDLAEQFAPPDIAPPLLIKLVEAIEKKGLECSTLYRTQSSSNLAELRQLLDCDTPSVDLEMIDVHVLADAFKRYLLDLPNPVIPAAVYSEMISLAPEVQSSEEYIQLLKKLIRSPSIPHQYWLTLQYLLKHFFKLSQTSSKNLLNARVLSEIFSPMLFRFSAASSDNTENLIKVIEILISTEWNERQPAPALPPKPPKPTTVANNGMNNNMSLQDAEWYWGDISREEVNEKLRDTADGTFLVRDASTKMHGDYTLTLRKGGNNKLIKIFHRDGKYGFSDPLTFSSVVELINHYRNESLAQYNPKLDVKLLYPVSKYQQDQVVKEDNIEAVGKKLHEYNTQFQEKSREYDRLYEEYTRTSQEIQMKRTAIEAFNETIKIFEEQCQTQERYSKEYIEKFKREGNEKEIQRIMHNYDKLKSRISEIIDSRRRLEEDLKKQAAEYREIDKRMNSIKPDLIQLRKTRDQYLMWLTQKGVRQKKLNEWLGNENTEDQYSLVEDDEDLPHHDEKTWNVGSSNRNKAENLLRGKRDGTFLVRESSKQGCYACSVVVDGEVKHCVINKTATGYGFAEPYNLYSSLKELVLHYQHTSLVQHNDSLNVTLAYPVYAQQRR
PI3K β (p110β/p85α)(h), sequence (P42338 whole entry): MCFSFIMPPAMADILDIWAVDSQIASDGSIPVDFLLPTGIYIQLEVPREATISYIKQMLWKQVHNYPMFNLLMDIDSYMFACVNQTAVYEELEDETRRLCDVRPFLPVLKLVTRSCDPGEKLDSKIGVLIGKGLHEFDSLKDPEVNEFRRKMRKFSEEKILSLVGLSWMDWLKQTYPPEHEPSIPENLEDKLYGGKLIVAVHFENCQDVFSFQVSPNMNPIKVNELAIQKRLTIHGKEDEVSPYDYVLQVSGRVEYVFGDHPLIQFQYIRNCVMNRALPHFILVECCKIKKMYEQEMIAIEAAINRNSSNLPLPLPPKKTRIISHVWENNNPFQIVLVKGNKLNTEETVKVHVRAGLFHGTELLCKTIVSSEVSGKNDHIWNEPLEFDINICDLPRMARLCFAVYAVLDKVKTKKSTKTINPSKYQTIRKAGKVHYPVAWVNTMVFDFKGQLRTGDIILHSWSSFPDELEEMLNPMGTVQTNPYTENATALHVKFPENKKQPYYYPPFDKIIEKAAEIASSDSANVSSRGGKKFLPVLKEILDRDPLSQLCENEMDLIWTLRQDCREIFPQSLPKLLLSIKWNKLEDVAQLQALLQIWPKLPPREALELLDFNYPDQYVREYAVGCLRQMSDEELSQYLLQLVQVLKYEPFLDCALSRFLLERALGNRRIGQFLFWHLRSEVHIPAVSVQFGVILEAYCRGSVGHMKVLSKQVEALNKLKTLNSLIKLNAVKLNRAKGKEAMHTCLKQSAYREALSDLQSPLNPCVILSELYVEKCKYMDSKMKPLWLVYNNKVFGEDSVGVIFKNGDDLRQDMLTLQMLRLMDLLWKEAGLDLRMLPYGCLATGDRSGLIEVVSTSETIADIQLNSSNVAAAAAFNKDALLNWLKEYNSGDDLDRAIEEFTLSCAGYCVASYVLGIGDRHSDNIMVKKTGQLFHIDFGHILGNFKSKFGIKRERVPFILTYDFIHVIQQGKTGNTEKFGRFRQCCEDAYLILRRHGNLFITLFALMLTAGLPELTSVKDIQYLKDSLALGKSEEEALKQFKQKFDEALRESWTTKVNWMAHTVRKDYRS
PI3K β (p110β/p85α)(h), sequence (P27986 whole entry partner): as the sequence (P27986 whole entry partner) above
PI3Kα (p110α/p85α)(h), sequence (P42336 whole entry): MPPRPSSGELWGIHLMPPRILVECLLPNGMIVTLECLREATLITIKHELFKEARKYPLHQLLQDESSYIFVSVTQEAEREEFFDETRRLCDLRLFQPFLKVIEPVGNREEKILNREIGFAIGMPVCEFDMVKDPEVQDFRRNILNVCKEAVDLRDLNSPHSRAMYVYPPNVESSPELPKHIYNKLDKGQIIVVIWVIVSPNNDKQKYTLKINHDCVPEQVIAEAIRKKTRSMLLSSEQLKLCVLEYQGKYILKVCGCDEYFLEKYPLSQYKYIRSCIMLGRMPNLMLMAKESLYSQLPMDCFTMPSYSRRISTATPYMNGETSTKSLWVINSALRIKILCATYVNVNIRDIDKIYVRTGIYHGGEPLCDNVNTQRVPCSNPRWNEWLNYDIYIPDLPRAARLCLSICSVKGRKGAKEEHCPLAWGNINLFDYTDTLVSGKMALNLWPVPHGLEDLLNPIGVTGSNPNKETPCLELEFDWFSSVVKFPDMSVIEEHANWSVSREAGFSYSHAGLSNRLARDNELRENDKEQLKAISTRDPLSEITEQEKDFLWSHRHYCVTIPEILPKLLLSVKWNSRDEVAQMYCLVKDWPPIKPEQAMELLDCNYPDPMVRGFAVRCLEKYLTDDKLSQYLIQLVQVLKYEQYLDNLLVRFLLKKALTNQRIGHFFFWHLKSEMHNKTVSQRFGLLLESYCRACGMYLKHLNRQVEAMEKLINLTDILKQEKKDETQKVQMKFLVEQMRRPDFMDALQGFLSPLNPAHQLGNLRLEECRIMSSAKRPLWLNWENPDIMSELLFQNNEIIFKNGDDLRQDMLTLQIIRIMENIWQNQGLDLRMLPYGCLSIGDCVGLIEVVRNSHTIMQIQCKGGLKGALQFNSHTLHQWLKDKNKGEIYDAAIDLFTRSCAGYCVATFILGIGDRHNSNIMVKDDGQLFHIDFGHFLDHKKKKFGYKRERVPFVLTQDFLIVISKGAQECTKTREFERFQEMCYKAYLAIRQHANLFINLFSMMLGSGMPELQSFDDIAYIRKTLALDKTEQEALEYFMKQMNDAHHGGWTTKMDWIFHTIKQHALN
PI3Kα (p110α/p85α)(h), sequence (P27986 whole entry partner): as the sequence (P27986 whole entry partner) above
PI3Kγ (p120γ)(h), sequence (P48736 whole entry): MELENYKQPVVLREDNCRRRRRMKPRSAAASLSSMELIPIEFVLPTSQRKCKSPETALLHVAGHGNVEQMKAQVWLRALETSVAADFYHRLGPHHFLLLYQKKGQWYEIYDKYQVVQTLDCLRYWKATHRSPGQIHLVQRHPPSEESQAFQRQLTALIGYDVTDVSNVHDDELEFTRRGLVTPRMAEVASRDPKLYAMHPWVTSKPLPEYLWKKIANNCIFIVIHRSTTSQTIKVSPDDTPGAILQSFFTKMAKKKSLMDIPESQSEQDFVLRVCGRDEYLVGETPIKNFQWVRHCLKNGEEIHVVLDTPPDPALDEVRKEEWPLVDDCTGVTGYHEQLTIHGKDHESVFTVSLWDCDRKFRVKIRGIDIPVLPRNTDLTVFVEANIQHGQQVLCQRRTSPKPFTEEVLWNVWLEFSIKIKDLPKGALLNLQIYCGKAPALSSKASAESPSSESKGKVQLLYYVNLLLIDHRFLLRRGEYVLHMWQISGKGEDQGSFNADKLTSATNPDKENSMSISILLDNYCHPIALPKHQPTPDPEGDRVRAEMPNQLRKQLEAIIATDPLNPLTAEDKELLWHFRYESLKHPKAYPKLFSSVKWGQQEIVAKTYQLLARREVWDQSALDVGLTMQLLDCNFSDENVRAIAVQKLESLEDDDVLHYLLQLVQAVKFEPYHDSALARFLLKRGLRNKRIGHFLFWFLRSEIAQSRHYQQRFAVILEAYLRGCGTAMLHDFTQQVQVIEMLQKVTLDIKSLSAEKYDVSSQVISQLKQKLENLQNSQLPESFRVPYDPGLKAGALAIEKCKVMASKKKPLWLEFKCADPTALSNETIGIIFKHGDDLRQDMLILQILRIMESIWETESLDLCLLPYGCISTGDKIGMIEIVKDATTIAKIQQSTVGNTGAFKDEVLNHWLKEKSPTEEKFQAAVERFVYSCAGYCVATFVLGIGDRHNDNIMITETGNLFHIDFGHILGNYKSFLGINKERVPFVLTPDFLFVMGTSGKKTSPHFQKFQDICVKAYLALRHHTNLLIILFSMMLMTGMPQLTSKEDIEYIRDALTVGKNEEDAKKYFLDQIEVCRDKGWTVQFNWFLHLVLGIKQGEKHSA

Row | Structure (SMILES) | IC50 (PI3K β (p110β/p85α)(h)) | IC50 (PI3Kα (p110α/p85α)(h)) | IC50 (PI3Kδ (p110δ/p85α)(h)) | IC50 (PI3Kγ (p120γ)(h))
1 | O=C1NC(=O)/C(=C/c2cc3cncc(-c4ccc(S(=O)(=O)NCCO)cc4)c3o2)S1 [Example 263, (Z)-4-[2-{(2,4-Dioxothiazolidin-5-ylidene)methyl}furo[3,2-c]pyridin-7-yl]-N-(2-hydroxyethyl)benzenesulfonamide] | 1400 nM | 16 nM | 2500 nM | 28 nM
2 | CNS(=O)(=O)c1ccc(-c2cncc3cc(/C=C4\SC(=O)NC4=O)oc23)cc1F [Example 279, (Z)-4-[2-{(2,4-Dioxothiazolidin-5-ylidene)methyl}furo[3,2-c]pyridin-7-yl]-2-fluoro-N-methylbenzenesulfonamide] | 480 nM | 40 nM | 747 nM | 17 nM
3 | CN(C)S(=O)(=O)c1ccc(-c2cncc3cc(/C=C4\SC(=O)NC4=O)oc23)cc1F [Example 280, (Z)-4-[2-{(2,4-Dioxothiazolidin-5-ylidene)methyl}furo[3,2-c]pyridin-7-yl]-2-fluoro-N,N-dimethylbenzenesulfonamide] | 1110 nM | 46 nM | 3000 nM | 22 nM
4 | Cc1cc(-c2cncc3cc(/C=C4\SC(=O)NC4=O)oc23)ccc1S(=O)(=O)N1CCOCC1 [Example 307, (Z)-5-([7-{3-Methyl-4-(morpholinosulfonyl)phenyl}furo[3,2-c]pyridin-2-yl]methylene)thiazolidine-2,4-dione] | 1940 nM | 14 nM | 52 nM | 15 nM
5 | Cc1cc(-c2cncc3cc(/C=C4\SC(=O)NC4=O)oc23)ccc1S(=O)(=O)NC(C)(C)C [Example 310, (Z)—N-tert-Butyl-4-[2-{(2,4-dioxothiazolidin-5-ylidene)methyl}furo[3,2-c]pyridin-7-yl]-2-methylbenzenesulfonamide] | 1940 nM | 11 nM | 220 nM | 12 nM
6 | COc1ncc(-c2cncc3cc(/C=C4\SC(=S)NC4=O)oc23)cc1C#N [Example 328, (Z)-2-Methoxy-5-[2-{(4-oxo-2-thioxothiazolidin-5-ylidene)methyl}furo[3,2-c]pyridin-7-yl]nicotinonitrile] | 630 nM | 15 nM | > 10000 nM | 56 nM
7 | CN(C)S(=O)(=O)c1ccc(-c2cncc3cc(/C=C4\SC(=S)NC4=O)oc23)cc1F [Example 330, (Z)-2-Fluoro-N,N-dimethyl-4-[2-{(4-oxo-2-thioxothiazolidin-5-ylidene)methyl}furo[3,2-c]pyridin-7-yl]benzenesulfonamide] | > 10000 nM | 24 nM | > 10000 nM | 12 nM
8 | CS(=O)(=O)c1c(F)cc(-c2cncc3cc(/C=C4\SC(=S)NC4=O)oc23)cc1F [Example 332, (Z)-5-([7-{3,5-Difluoro-4-(methylsulfonyl)phenyl}furo[3,2-c]pyridin-2-yl]methylene)-2-thioxothiazolidin-4-one] | > 10000 nM | 10 nM | 9300 nM | 19 nM
9 | CN(C)S(=O)(=O)c1ccc(-c2cncc3cc(/C=C4\SC(=S)NC4=O)oc23)cc1OC(F)(F)F [Example 339, (Z)—N,N-Dimethyl-4-[2-{(4-oxo-2-thioxothiazolidin-5-ylidene)methyl}furo[3,2-c]pyridin-7-yl]-2-(trifluoromethoxy)benzenesulfonamide] | 443 nM | 8 nM | 188 nM | 16 nM
10 | O=C1NC(=S)S/C1=C\c1cc2cncc(-c3cc(Cl)c(S(=O)(=O)N4CCOCC4)c(Cl)c3)c2o1 [Example 343, (Z)-5-([7-{3,5-Dichloro-4-(morpholinosulfonyl)phenyl}furo[3,2-c]pyridin-2-yl]methylene)-2-thioxothiazolidin-4-one] | > 10000 nM | 19 nM | 53 nM | 4 nM
11 | CC(C)NS(=O)(=O)c1c(Cl)cc(-c2cncc3cc(/C=C4\SC(=S)NC4=O)oc23)cc1Cl [Example 345, (Z)-2,6-Dichloro-N-isopropyl-4-[2-{(4-oxo-2-thioxothiazolidin-5-ylidene)methyl}furo[3,2-c]pyridin-7-yl]benzenesulfonamide] | 3860 nM | 11 nM | 89 nM | 4 nM
12 | COC(=O)c1cc(F)cc(-c2cncc3cc(/C=C4\SC(=S)NC4=O)oc23)c1 [Example 351, (Z)-Methyl 3-fluoro-5-[2-{(4-oxo-2-thioxothiazolidin-5-ylidene)methyl}furo[3,2-c]pyridin-7-yl]benzoate] | > 10000 nM | 4 nM | > 10000 nM | 9 nM
13 | Nc1ccc(-c2cncc3cc(/C=C4\SC(=S)NC4=O)oc23)cc1C(F)(F)F [Example 361, (Z)-5-([7-{4-Amino-3-(trifluoromethyl)phenyl}furo[3,2-c]pyridin-2-yl]methylene)-2-thioxothiazolidin-4-one] | 1430 nM | 41 nM | 924 nM | 10 nM
14 | COc1ccccc1NC(=O)c1cncc2cc(/C=C3\SC(=O)NC3=O)oc12 [Example 412, (Z)-2-{(2,4-Dioxothiazolidin-5-ylidene)methyl}-N-(2-methoxyphenyl)furo[3,2-c]pyridine-7-carboxamide] | 869 nM | 17 nM | 205 nM | 182 nM
